Experimental data reported in EP1143981B1, “USE OF N-GLYCOLNEURAMINIC ACID AND ITS DERIVATIVES FOR THE MANUFACTURE OF A MEDICAMENT FOR THE TREATMENT OF HIV INFECTIONS” (Glukor, Inc., priority 1998, dated 2000).
Several values for one entry are separate records, joined by “and”; a condition that tells them apart may be missing. Equal entries are not always repeated.

Tested on: HIV-1ROJO
Test: Reverse transcriptase activity assay in infected PBMCs
Format: cell-based
Settings: for RT activity % VC: % virus control; for RT Activity (cpm) / Reverse Transcriptase (RT) Activity (cpm): single samples; for IC50: Human immunodeficiency virus 1, PBMC
Text: PBMCs were isolated from fresh human blood obtained commercially from the American Red Cross (Baltimore, Maryland). CEM-SS cells were obtained from the NIH AIDS reagent program. The low passage, lymphotropic clinical isolate ROJO was obtained from a pediatric patient attending the AIDS Clinic at the University of Alabama at Birmingham. Phytohemagglutinin (PHA-P) was obtained from Sigma Chemical Co. (St. Louis, MO) and recombinant IL-2 was obtained from Amgen (San Francisco, CA). As a positive control for antiviral assays, AZT was obtained from the NIH AIDS Reagent Program. HIV-1RF also was obtained from the NIH AIDS reagent program. Tritiated thymidine triphosphate was obtained from New England Nuclear (Boston, MA). Each plate in each experiment contained cell control wells (cells only), virus control wells (cells plus virus), drug toxicity control wells (cells plus drug only), drug colorimetric control wells (drug only) as well as experimental wells (drug plus cells plus virus).
Fresh human PBMCs were isolated from voluntary Red Cross donors, seronegative for HIV and HBV. Leukophoresed blood was diluted 1:1 with Dulbecco's PBS, layered over 14 mL of Ficoll-Hypaque density gradient in a 50mL centrifuge and then centrifuged for 30 minutes at 600 x g. Banded PBMCs were gently aspirated from the resulting interface and subsequently washed twice with PBS by low speed centrifugation. […] PBMCs were maintained in this medium at a concentration of 1-2 x 10^6 cells/mL with bi-weekly medium changes until used in the assay.
For the standard PBMC assay, PHA-P stimulated cells from at least two normal donors were pooled, diluted in fresh medium to a final concentration of 1 x 10^6 cells/mL, and plated in the interior wells of a 96 well round bottom microplate at 50 µL/well (5 x 10^4 cells/well). Test drug dilutions were prepared at a 2X concentration in microfuge tubes and 100 µL of each concentration was placed in appropriate wells in a standard format. A predetermined dilution of virus stock was placed in each test well (50 µL, final MOI ≅ 0.1). Wells with cells and virus alone were used for virus control. Separate plates were prepared identically without virus for drug cytotoxicity studies using an XTT assay system. The PBMC cultures were maintained for seven days following infection, at which time cell-free supernatant samples were collected and assayed for reverse transcriptase activity as described below.
Virus Preparation: Pre-tittered aliquots of HIV-1ROJO and HIV-1RF were removed from the freezer (-80°C) and thawed to room temperature in a biological safety cabinet. The virus was resuspended and diluted into tissue culture medium such that the amount of virus added to each well in a volume of 50 µL will be the amount determined to give complete cell killing at 6 days post-infection.
Reverse Transcriptase Activity Assay: A microtiter based reverse transcriptase (RT) reaction was utilized as described by Buckheit et al., (1991), AIDS Research and Human Retroviruses, 7:295-302. Tritiated thymidine triphosphate (^3H-TTP) was suspended in distilled H2O at 5 Ci/mL. Poly rA and oligo dT were prepared as a stock solution which was kept at -20°C. RT reaction buffer was prepared fresh on a daily basis and contained 125 µL 1M EGTA, 125 µL dH2O, 110 µL 10% SDS, 50 µL 1M Tris (pH 7.4), 50 µL 1M DTT, and 40 µL 1M MgCl2. These three solutions were mixed together in a ratio of 2 parts ^3H-TTP, 1 part poly rA:oligo dT, and 1 part reaction buffer. Ten microliters of this reaction mixture were placed in a round bottom microtiter plate and 15 µL of virus containing supernatant were added and mixed. The plate was incubated at 37°C in a water bath with a solid support to prevent submersion of the plate and incubated for 60 minutes.

[1] = 0.0001 mM, simultaneously exposed to drug and HIV
[2] = 0.00032 mM, 2-hour pretreatment
[3] = 0.00032 mM, simultaneously exposed to drug and HIV
[4] = 0.001 mM, simultaneously exposed to drug and HIV
[5] = 0.0032 mM, simultaneously exposed to drug and HIV
[6] = 0.01 mM, simultaneously exposed to drug and HIV
[7] = 0.032 mM, simultaneously exposed to drug and HIV
[8] = 0.1 mM, simultaneously exposed to drug and HIV
[9] = 0.32 mM, simultaneously exposed to drug and HIV
[10] = 1 mM, simultaneously exposed to drug and HIV

## O=C(CO)N[C@H]1[C@H]([C@H](O)[C@H](O)CO)OC(O)(C(=O)O)C[C@@H]1O (stereo partly shown) [N-glycolylneuraminic acid]
0.0001 mM, 2-hour pretreatment
  Reverse Transcriptase (RT) Activity (cpm), Mean: 2763.7 cpm
  RT activity % VC: 134.2%
[1]
  RT Activity (cpm), Mean: 2348.3 cpm
  RT activity % VC: 78.5%
  RT Activity (cpm): 2423.0 cpm and 2253.0 cpm and 2369.0 cpm
[2]
  Reverse Transcriptase (RT) Activity (cpm), Mean: 2015.3 cpm
  RT activity % VC: 97.8%
[3]
  RT Activity (cpm), Mean: 2795.0 cpm
  RT activity % VC: 93.4%
0.001 mM, 2-hour pretreatment
  Reverse Transcriptase (RT) Activity (cpm), Mean: 1867.0 cpm
  RT activity % VC: 90.6%
[4]
  RT Activity (cpm), Mean: 3108.7 cpm
  RT activity % VC: 103.9%
0.0032 mM, 2-hour pretreatment
  Reverse Transcriptase (RT) Activity (cpm), Mean: 2529.0 cpm
  RT activity % VC: 122.8%
  Reverse Transcriptase (RT) Activity (cpm): 2381.0 cpm and 3368.0 cpm and 1838.0 cpm
[5]
  RT Activity (cpm), Mean: 2892.7 cpm
  RT activity % VC: 96.7%
0.01 mM, 2-hour pretreatment
  Reverse Transcriptase (RT) Activity (cpm), Mean: 951.3 cpm
  RT activity % VC: 46.2%
[6]
  RT Activity (cpm), Mean: 2163.3 cpm
  RT activity % VC: 72.3%
  RT Activity (cpm): 2284.0 cpm and 2280.0 cpm and 1926.0 cpm
0.032 mM, 2-hour pretreatment
  Reverse Transcriptase (RT) Activity (cpm), Mean: 561.7 cpm
  RT activity % VC: 27.3%
[7]
  RT Activity (cpm), Mean: 1867.3 cpm
  RT activity % VC: 62.4%
  RT Activity (cpm): 1814.0 cpm and 2094.0 cpm and 1694.0 cpm
0.1 mM, 2-hour pretreatment
  Reverse Transcriptase (RT) Activity (cpm), Mean: 459.0 cpm
  RT activity % VC: 22.3%
[8]
  RT Activity (cpm), Mean: 906.3 cpm
  RT activity % VC: 30.3%
0.32 mM, 2-hour pretreatment
  Reverse Transcriptase (RT) Activity (cpm), Mean: 146.7 cpm
  RT activity % VC: 7.1%
  Reverse Transcriptase (RT) Activity (cpm): 196.0 cpm and 140.0 cpm and 104.0 cpm
[9]
  RT Activity (cpm), Mean: 102.7 cpm
  RT Activity (cpm): 132.0 cpm and 108.0 cpm and 68.0 cpm
1 mM, 2-hour pretreatment
  Reverse Transcriptase (RT) Activity (cpm), Mean: 76.0 cpm
  RT activity % VC: 3.7%
  Reverse Transcriptase (RT) Activity (cpm): 72.0 cpm and 68.0 cpm and 88.0 cpm
[10]
  RT Activity (cpm), Mean: 204 cpm
  RT activity % VC: 6.8%
PBMCs, 2hr pretreatment
  IC50: ~10 µM
PBMCs, simultaneously exposed to drug and HIV, without a pretreatment
  IC50: ~58 µM
PBMCs, simultaneously exposed to drug and HIV
  TI: > 17.25
PBMCs, with and without a 2hr pretreatment of the cells
  anti-HIV activity: active
